Each block holds one compound with its values, some of them ahead of it.
System: 186277-243-T-J2-PDC complex spheroids, viability
Test: Anticancer human tumor 186277-243-T-J2-PDC patient-derived colon adenocarcinoma cell line growth inhibition [RAS]
Details: for IC50: curve of first compound; for viability, T/C: stronger effect = lower value
Procedure, shortened: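 Agents were tested in combination matrices in half-log decrements from a top concentration at or near clinical Cmax (10 microM if undetermined). Targets were multi-cell spheroids of tumour lines plus HUVEC and MSC stromal cells.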

[1] = second compound 0.0316 µM, first compound 0.0316 µM
[2] = second compound 0.0316 µM, first compound 0.1 µM
[3] = second compound 0.0316 µM, first compound 0.316 µM
[4] = second compound 0.0316 µM, first compound 1 µM
[5] = second compound 0.1 µM, first compound 0.0316 µM
[6] = second compound 0.1 µM, first compound 0.1 µM
[7] = second compound 0.1 µM, first compound 0.316 µM
[8] = second compound 0.1 µM, first compound 1 µM
[9] = second compound 0.316 µM, first compound 0.0316 µM
[10] = second compound 0.316 µM, first compound 0.1 µM
[11] = second compound 0.316 µM, first compound 0.316 µM
[12] = second compound 0.316 µM, first compound 1 µM
[13] = second compound 1 µM, first compound 0.0316 µM
[14] = second compound 1 µM, first compound 0.1 µM
[15] = second compound 1 µM, first compound 0.316 µM
[16] = second compound 1 µM, first compound 1 µM
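Note: spheroids exposed to compounds for 7 days before viability read.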

IC50 (second compound 0.00316 µM): 1680 nM | IC50 (second compound 0.01 µM): 3220 nM | IC50 (second compound 0.0316 µM): 2700 nM | IC50 (second compound 0.1 µM): 2040 nM | IC50 (second compound 0.316 µM): 2530 nM | IC50 (second compound 1 µM): 1910 nM
Compound: CC(C)NCC(C(=O)N1CCN(c2ncnc3c2C(C)CC3O)CC1)c1ccc(Cl)cc1 (stereo unspecified) + C=CC(=O)N1CCN(c2nc(OCC3CCCN3C)nc3c(F)c(-c4nc(N)cc(C)c4C(F)(F)F)c(Cl)cc23)C(C)C1
viability, T/C (second compound 0.00316 µM, first compound 0.0316 µM): 94.2% | viability, T/C (second compound 0.00316 µM, first compound 0.1 µM): 87% | viability, T/C (second compound 0.00316 µM, first compound 0.316 µM): 113% | viability, T/C (second compound 0.00316 µM, first compound 1 µM): 59.2% | viability, T/C (second compound 0.00316 µM, first compound 3.16 µM): 43.6% | viability, T/C (second compound 0.00316 µM, first compound 10 µM): 34% | viability, T/C (second compound 0.01 µM, first compound 0.0316 µM): 78.7% | viability, T/C (second compound 0.01 µM, first compound 0.1 µM): 100% | viability, T/C (second compound 0.01 µM, first compound 0.316 µM): 101% | viability, T/C (second compound 0.01 µM, first compound 1 µM): 79.4% | viability, T/C (second compound 0.01 µM, first compound 3.16 µM): 51.4% | viability, T/C (second compound 0.01 µM, first compound 10 µM): 33.6% | viability, T/C [1]: 72.3% | viability, T/C [2]: 110% | viability, T/C [3]: 77.1% | viability, T/C [4]: 87.1% | viability, T/C (second compound 0.0316 µM, first compound 3.16 µM): 44.1% | viability, T/C (second compound 0.0316 µM, first compound 10 µM): 35.2% | viability, T/C [5]: 93.2% | viability, T/C [6]: 85.8% | viability, T/C [7]: 103% | viability, T/C [8]: 63.4% | viability, T/C (second compound 0.1 µM, first compound 3.16 µM): 47.6% | viability, T/C (second compound 0.1 µM, first compound 10 µM): 35.8% | viability, T/C [9]: 91.4% | viability, T/C [10]: 96.3% | viability, T/C [11]: 89.1% | viability, T/C [12]: 62.8% | viability, T/C (second compound 0.316 µM, first compound 3.16 µM): 49.9% | viability, T/C (second compound 0.316 µM, first compound 10 µM): 29.5% | viability, T/C [13]: 107% | viability, T/C [14]: 97.7% | viability, T/C [15]: 87.5% | viability, T/C [16]: 63.7% | viability, T/C (second compound 1 µM, first compound 3.16 µM): 38.9% | viability, T/C (second compound 1 µM, first compound 10 µM): 25.2%

IC50 (second compound 0.0316 µM): > 1000 nM | IC50 (second compound 0.1 µM): 325 nM | IC50 (second compound 0.316 µM): < 3.16 nM | IC50 (second compound 1 µM): < 3.16 nM | IC50 (second compound 3.16 µM): < 3.16 nM | IC50 (second compound 10 µM): < 3.16 nM
Compound: C=CC(=O)N1CCN(c2nc(OCC3CCCN3C)nc3c(F)c(-c4nc(N)cc(C)c4C(F)(F)F)c(Cl)cc23)C(C)C1 (stereo unspecified) + C#Cc1c(F)ccc2cc(O)cc(-c3ncc4c(N5CC6CCC(C5)N6)nc(OCC56CCCN5CC(F)C6)nc4c3F)c12
viability, T/C (second compound 0.0316 µM, first compound 0.00316 µM): 75.1% | viability, T/C (second compound 0.0316 µM, first compound 0.01 µM): 97.6% | viability, T/C [1]: 84.3% | viability, T/C [2]: 78.3% | viability, T/C [3]: 79.5% | viability, T/C [4]: 54.6% | viability, T/C (second compound 0.1 µM, first compound 0.00316 µM): 69.6% | viability, T/C (second compound 0.1 µM, first compound 0.01 µM): 73.7% | viability, T/C [5]: 60.4% | viability, T/C [6]: 58.4% | viability, T/C [7]: 53.1% | viability, T/C [8]: 35.8% | viability, T/C (second compound 0.316 µM, first compound 0.00316 µM): 24.2% | viability, T/C (second compound 0.316 µM, first compound 0.01 µM): 35.7% | viability, T/C [9]: 37.8% | viability, T/C [10]: 25.2% | viability, T/C [11]: 33.2% | viability, T/C [12]: 24.2% | viability, T/C (second compound 1 µM, first compound 0.00316 µM): 18.1% | viability, T/C (second compound 1 µM, first compound 0.01 µM): 19.1% | viability, T/C [13]: 19.1% | viability, T/C [14]: 18.6% | viability, T/C [15]: 19% | viability, T/C [16]: 15.5% | viability, T/C (second compound 3.16 µM, first compound 0.00316 µM): 9.97% | viability, T/C (second compound 3.16 µM, first compound 0.01 µM): 14.1% | viability, T/C (second compound 3.16 µM, first compound 0.0316 µM): 12.5% | viability, T/C (second compound 3.16 µM, first compound 0.1 µM): 13.3% | viability, T/C (second compound 3.16 µM, first compound 0.316 µM): 15.5% | viability, T/C (second compound 3.16 µM, first compound 1 µM): 10.9% | viability, T/C (second compound 10 µM, first compound 0.00316 µM): 8.29% | viability, T/C (second compound 10 µM, first compound 0.01 µM): 9.21% | viability, T/C (second compound 10 µM, first compound 0.0316 µM): 11.5% | viability, T/C (second compound 10 µM, first compound 0.1 µM): 11% | viability, T/C (second compound 10 µM, first compound 0.316 µM): 11.3% | viability, T/C (second compound 10 µM, first compound 1 µM): 8.56%

IC50 (second compound 0.000949 µM): > 10000 nM | IC50 (second compound 0.003 µM): > 10000 nM | IC50 (second compound 0.00949 µM): 3630 nM | IC50 (second compound 0.03 µM): < 31.6 nM | IC50 (second compound 0.0949 µM): < 31.6 nM | IC50 (second compound 0.3 µM): < 31.6 nM
Compound: C[C@@H](NC(=O)c1ncnc(N)c1Cl)c1ncc(C(=O)Nc2cc(C(F)(F)F)c(Cl)cn2)s1 + CCn1c(-c2cc(N3CCN(C)CC3)cnc2C(C)OC)c2c3cc(ccc31)-c1csc(n1)CC(NC(=O)C1CC1C)C(=O)N1CCCC(N1)C(=O)OCC(C)(C)C2
viability, T/C (second compound 0.000949 µM, first compound 0.0316 µM): 104% | viability, T/C (second compound 0.000949 µM, first compound 0.1 µM): 87.5% | viability, T/C (second compound 0.000949 µM, first compound 0.316 µM): 88% | viability, T/C (second compound 0.000949 µM, first compound 1 µM): 88.7% | viability, T/C (second compound 0.000949 µM, first compound 3.16 µM): 85.9% | viability, T/C (second compound 0.000949 µM, first compound 10 µM): 73.6% | viability, T/C (second compound 0.003 µM, first compound 0.0316 µM): 108% | viability, T/C (second compound 0.003 µM, first compound 0.1 µM): 114% | viability, T/C (second compound 0.003 µM, first compound 0.316 µM): 109% | viability, T/C (second compound 0.003 µM, first compound 1 µM): 82.6% | viability, T/C (second compound 0.003 µM, first compound 3.16 µM): 93.2% | viability, T/C (second compound 0.003 µM, first compound 10 µM): 54.4% | viability, T/C (second compound 0.00949 µM, first compound 0.0316 µM): 61.7% | viability, T/C (second compound 0.00949 µM, first compound 0.1 µM): 83.8% | viability, T/C (second compound 0.00949 µM, first compound 0.316 µM): 78.6% | viability, T/C (second compound 0.00949 µM, first compound 1 µM): 71.4% | viability, T/C (second compound 0.00949 µM, first compound 3.16 µM): 54.2% | viability, T/C (second compound 0.00949 µM, first compound 10 µM): 19.8% | viability, T/C (second compound 0.03 µM, first compound 0.0316 µM): 21.2% | viability, T/C (second compound 0.03 µM, first compound 0.1 µM): 23.7% | viability, T/C (second compound 0.03 µM, first compound 0.316 µM): 25.3% | viability, T/C (second compound 0.03 µM, first compound 1 µM): 20.9% | viability, T/C (second compound 0.03 µM, first compound 3.16 µM): 16.9% | viability, T/C (second compound 0.03 µM, first compound 10 µM): 10% | viability, T/C (second compound 0.0949 µM, first compound 0.0316 µM): 9.22% | viability, T/C (second compound 0.0949 µM, first compound 0.1 µM): 10.4% | viability, T/C (second compound 0.0949 µM, first compound 0.316 µM): 10% | viability, T/C (second compound 0.0949 µM, first compound 1 µM): 9.11% | viability, T/C (second compound 0.0949 µM, first compound 3.16 µM): 8.59% | viability, T/C (second compound 0.0949 µM, first compound 10 µM): 7.09% | viability, T/C (second compound 0.3 µM, first compound 0.0316 µM): 7.68% | viability, T/C (second compound 0.3 µM, first compound 0.1 µM): 8.08% | viability, T/C (second compound 0.3 µM, first compound 0.316 µM): 7.77% | viability, T/C (second compound 0.3 µM, first compound 1 µM): 7.85% | viability, T/C (second compound 0.3 µM, first compound 3.16 µM): 7.78% | viability, T/C (second compound 0.3 µM, first compound 10 µM): 4.79%
